From ChEMBL document CHEMBL1201861, “Genomics of Drug Sensitity in Cancer screening data, Wellcome Trust Sanger Institute” come the findings set out here.

A value given as a limit tells only on which side of the number the result lay.

The subject of one test is Caov-3 cell line. The experiment in a line: cells. It counts as functional, cell-based. The settings on record: Homo sapiens.
Another test has as its system HMV-2 cell line. The experiment in a line: cells. The settings on record: Homo sapiens, HMV-2. It counts as functional, cell-based, Homo sapiens.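 Also: growth inhibition of HMV-II cells, read out with a cell viability assay.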
The test system of a further test is KU812 cell line. The experiment in a line: cells. It counts as functional, cell-based. The settings on record: Homo sapiens.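 Also: growth inhibition of KU812 cells, read out with a cell viability assay.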
The next test has as its system KYSE-150 cell line. Kind of test: cells. It is filed as functional, cell-based, Homo sapiens. The settings on record: Homo sapiens, KYSE-150.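 Also: growth inhibition of human KYSE-150 cells, read out with a cell viability assay.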
In a further test the test system is KYSE-520 cell line. The experiment in a line: cells. It is filed as functional, cell-based, Homo sapiens. The settings on record: Homo sapiens, KYSE-520.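 Also: growth inhibition of human KYSE-520 cells, read out with a viability assay.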
The test system of the next test is KYSE-70 cell line. Kind of test: cells. It is filed as functional, cell-based, Homo sapiens. The settings on record: Homo sapiens, KYSE-70.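 Also: cell viability assay read-out, with IC50 expressing suppression of KYSE-70 cell growth.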
For the next test, the system named is LCLC-103H cell line. The experiment in a line: cells. Particulars: Homo sapiens, LCLC-103H. It counts as functional, cell-based, Homo sapiens.
Another test relates to LXF-289 cell line. The experiment in a line: cells. Particulars: Homo sapiens, LXF-289. It is filed as functional, cell-based, Homo sapiens.
Another test relates to A253 cell line. The experiment in a line: cells. It counts as functional, cell-based, Homo sapiens. The settings on record: Homo sapiens, A253.
Another test has as its system BC1 cell line. Kind of test: SANGER: Inhibition of human BC-1 cell growth in a cell viability assay. It counts as functional, cell-based.

Broadly, the IC50 is the concentration at which inhibition is half-maximal. A higher IC50 goes with a need for much substance.

Description for A253 cell line: SANGER: Inhibition of human A253 cell growth in a cell viability assay.
Description for Caov-3 cell line: SANGER: Inhibition of human Caov-3 cell growth in a cell viability assay.
Description for HMV-2 cell line: SANGER: Inhibition of human HMV-II cell growth in a cell viability assay.
Description for KU812 cell line: SANGER: Inhibition of human KU812 cell growth in a cell viability assay.
Description for KYSE-150 cell line: SANGER: Inhibition of human KYSE-150 cell growth in a cell viability assay.
Description for KYSE-520 cell line: SANGER: Inhibition of human KYSE-520 cell growth in a cell viability assay.
Description for KYSE-70 cell line: SANGER: Inhibition of human KYSE-70 cell growth in a cell viability assay.
Description for LCLC-103H cell line: SANGER: Inhibition of human LCLC-103H cell growth in a cell viability assay.
Description for LXF-289 cell line: SANGER: Inhibition of human LXF-289 cell growth in a cell viability assay.

`C[C@@]1(C(=O)Nc2ccc(F)nc2)CCCN1c1nc(Nc2cc(C3CC3)n[nH]2)c2cccn2n1` [BMS-754807]: the IC50 in the test on Caov-3 cell line was above 2560 nM; with HMV-2 cell line, 183 nM; with KU812 cell line, above 2560 nM; in the test with KYSE-150 cell line, 2250 nM; in the test with KYSE-520 cell line it was above 2560 nM; with KYSE-70 cell line it was above 2560 nM. In addition, the IC50 in the test with LCLC-103H cell line is 788 nM; in the test on LXF-289 cell line, above 2560 nM; with A253 cell line it was above 2560 nM; in the test on BC1 cell line, 587 nM.
